Experimental data taken from the supplement of paper PMC5908809.

Assays:
[1] = tested on: normal NK cells expanded with K562-aAPC; assay: percent inhibition of viability; higher = more inhibition; settings: 72 h, IL-2 2.5 ng/mL
Procedure: (§1)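 Drug sensitivity and resistance testing on K562-aAPC-expanded normal NK cells: 5 concentrations (10-fold steps over a 10,000-fold range), 72 h at 37 °C, viability by CellTiter-Glo normalised to DMSO and benzethonium chloride controls; DSS from the fitted curve.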

DERL-7 (IL-2 2.5 ng/mL) [2] = assay: as above; settings: 72 h
IMC-1 (IL-2 20 ng/mL) [3] = assay: as above; settings: 72 h
KAI3 (IL-2 2.5 ng/mL) [4] = assay: as above; settings: 72 h
KHYG-1 (IL-2 2.5 ng/mL) [5] = assay: as above; settings: 72 h
NK-92 (IL-2 2.5 ng/mL) [6] = assay: as above; settings: 72 h
NK-YS (IL-2 2.5 ng/mL) [7] = assay: as above; settings: 72 h
NKL (IL-2 2.5 ng/mL) [8] = assay: as above; settings: 72 h
SNK-6 (IL-2 2.5 ng/mL) [9] = assay: as above; settings: 72 h
YT (IL-2 2.5 ng/mL) [10] = assay: as above; settings: 72 h
[11] = tested on: normal primary NK cells, pool 1 (3 donors) (IL-2 2.5 ng/mL); assay: as above; settings: 72 h
[12] = tested on: normal primary NK cells, pool 1 (3 donors), resting (IL-2 0 ng/mL); assay: as above; settings: 72 h
[13] = tested on: normal primary NK cells, pool 2 (3 donors) (IL-2 2.5 ng/mL); assay: as above; settings: 72 h
[14] = tested on: normal primary NK cells, pool 3 (3 donors) (IL-2 2.5 ng/mL); assay: as above; settings: 72 h
[15] = tested on: normal NK cells expanded with K562-aAPC; assay: drug sensitivity score (DSS) (DSS units); higher = more sensitive; extreme values may be limits of the assay; settings: 72 h; IL-2 2.5 ng/mL
Procedure: as §1

DERL-7 (IL-2 2.5 ng/mL) [16] = assay: as above; settings: 72 h
IMC-1 (IL-2 20 ng/mL) [17] = assay: as above; settings: 72 h
KAI3 (IL-2 2.5 ng/mL) [18] = assay: as above; settings: 72 h
KHYG-1 (IL-2 2.5 ng/mL) [19] = assay: as above; settings: 72 h
NK-92 (IL-2 2.5 ng/mL) [20] = assay: as above; settings: 72 h
NK-YS (IL-2 2.5 ng/mL) [21] = assay: as above; settings: 72 h
NKL (IL-2 2.5 ng/mL) [22] = assay: as above; settings: 72 h
SNK-6 (IL-2 2.5 ng/mL) [23] = assay: as above; settings: 72 h
YT (IL-2 2.5 ng/mL) [24] = assay: as above; settings: 72 h
[25] = tested on: normal primary NK cells, pool 1 (3 donors) (IL-2 2.5 ng/mL); assay: as above; settings: 72 h
[26] = tested on: normal primary NK cells, pool 1 (3 donors), resting (IL-2 0 ng/mL); assay: as above; settings: 72 h
[27] = tested on: normal primary NK cells, pool 2 (3 donors) (IL-2 2.5 ng/mL); assay: as above; settings: 72 h
[28] = tested on: normal primary NK cells, pool 3 (3 donors) (IL-2 2.5 ng/mL); assay: as above; settings: 72 h

Cn1cc(C2=C(c3cn(C4CCN(Cc5ccccn5)CC4)c4ccccc34)C(=O)NC2=O)c2ccccc21 [Enzastaurin] (max concentration tested 10000 nM)
percent inhibition of viability [%]
Settings	1 nM	10 nM	100 nM	1000 nM	10000 nM
DERL-7 (IL-2 2.5 ng/mL) [2]	1.51	-3.14	-1.37	-1.66	38.9
IMC-1 (IL-2 20 ng/mL) [3]	-6.89	3.57	0.18	12	33.1
KAI3 (IL-2 2.5 ng/mL) [4]	-2.12	1.12	-3.1	-5.65	1.6
KHYG-1 (IL-2 2.5 ng/mL) [5]	0.22	1.8	5.25	15.6	19
NK-92 (IL-2 2.5 ng/mL) [6]	5.42	5.65	-7.08	-10.9	14.2
NK-YS (IL-2 2.5 ng/mL) [7]	0.58	2.87	5.54	3.28	8.57
NKL (IL-2 2.5 ng/mL) [8]	-10.8	-1.53	6.99	9.21	4.11
SNK-6 (IL-2 2.5 ng/mL) [9]	-2.07	-1.57	11	-2.69	14.5
YT (IL-2 2.5 ng/mL) [10]	0.21	3.25	5.09	4.05	16.4
[1]	-2.11	0.83	0.77	6.44	4.35
[11]	2.52	-11.7	-6.73	-14.6	-7.58
[12]	3.14	-9.37	-6.91	-38.3	-57.7
[13]	-9.8	0.84	10.8	-7.31	23.3
[14]	-14.8	-5.85	0.91	-0.47	24.4

Settings	drug sensitivity score
DERL-7 (IL-2 2.5 ng/mL) [16]	1.77
IMC-1 (IL-2 20 ng/mL) [17]	3.17
KAI3 (IL-2 2.5 ng/mL) [18]	0
KHYG-1 (IL-2 2.5 ng/mL) [19]	2
NK-92 (IL-2 2.5 ng/mL) [20]	0.06
NK-YS (IL-2 2.5 ng/mL) [21]	0
NKL (IL-2 2.5 ng/mL) [22]	0
SNK-6 (IL-2 2.5 ng/mL) [23]	0.12
YT (IL-2 2.5 ng/mL) [24]	0.24
[15]	0
[25]	0
[26]	0
[27]	0.55
[28]	0.87

COc1cc([C@@H]2c3cc4c(cc3[C@@H](O[C@@H]3O[C@@H]5CO[C@@H](C)O[C@H]5[C@H](O)[C@H]3O)[C@H]3COC(=O)[C@H]23)OCO4)cc(OC)c1O [Etoposide] (max concentration tested 10000 nM)
percent inhibition of viability [%]
Settings	1 nM	10 nM	100 nM	1000 nM	10000 nM
DERL-7 (IL-2 2.5 ng/mL) [2]	-3.7	3.15	32.8	97	82.8
IMC-1 (IL-2 20 ng/mL) [3]	-6.15	1.75	34.8	97.9	99.5
KAI3 (IL-2 2.5 ng/mL) [4]	5.94	13.2	41.3	76.4	78
KHYG-1 (IL-2 2.5 ng/mL) [5]	-3.98	-9.64	3.44	87.1	101
NK-92 (IL-2 2.5 ng/mL) [6]	-7.31	-6.78	5.02	67.3	101
NK-YS (IL-2 2.5 ng/mL) [7]	3.6	4.01	29.1	77.3	83.9
NKL (IL-2 2.5 ng/mL) [8]	-3.26	4.8	80.7	94.3	101
SNK-6 (IL-2 2.5 ng/mL) [9]	-11.1	0.92	-0.88	74.3	96.2
YT (IL-2 2.5 ng/mL) [10]	-3.45	-8.19	-5.67	44.7	98.2
[1]	-5.25	-8.84	-1.72	49.7	65.7
[11]	-1.51	1.58	11.1	14.3	79.7
[12]	0.93	10	22.8	40	90.5
[13]	-2.19	-0.27	0.34	8.73	53.7
[14]	0.28	-3.78	10.1	11.7	48.3

Settings	drug sensitivity score
DERL-7 (IL-2 2.5 ng/mL) [16]	21.9
IMC-1 (IL-2 20 ng/mL) [17]	22.2
KAI3 (IL-2 2.5 ng/mL) [18]	19.3
KHYG-1 (IL-2 2.5 ng/mL) [19]	16.2
NK-92 (IL-2 2.5 ng/mL) [20]	13.7
NK-YS (IL-2 2.5 ng/mL) [21]	17.7
NKL (IL-2 2.5 ng/mL) [22]	28
SNK-6 (IL-2 2.5 ng/mL) [23]	13.8
YT (IL-2 2.5 ng/mL) [24]	11.1
[15]	9.42
[25]	6.78
[26]	11.3
[27]	4.34
[28]	4.07

CO[C@H]1C[C@@H]2CC[C@@H](C)[C@@](O)(O2)C(=O)C(=O)N2CCCC[C@H]2C(=O)O[C@H]([C@H](C)C[C@@H]2CC[C@@H](OCCO)[C@H](OC)C2)CC(=O)[C@H](C)/C=C(\C)[C@@H](O)[C@@H](OC)C(=O)[C@H](C)C[C@H](C)/C=C/C=C/C=C/1C [Everolimus] (max concentration tested 100 nM)
percent inhibition of viability [%]
Settings	0.01 nM	0.1 nM	1 nM	10 nM	100 nM
DERL-7 (IL-2 2.5 ng/mL) [2]	-6.16	5.85	26.6	49.4	52.4
IMC-1 (IL-2 20 ng/mL) [3]	-0.49	-3.23	-12.1	-39.5	-47.1
KAI3 (IL-2 2.5 ng/mL) [4]	-3.78	2.36	31.4	45.3	37.6
KHYG-1 (IL-2 2.5 ng/mL) [5]	-2.44	-5.06	0.91	30.6	28.2
NK-92 (IL-2 2.5 ng/mL) [6]	-9.11	-13.2	0.14	10.7	17
NK-YS (IL-2 2.5 ng/mL) [7]	-2.59	2.94	38.2	47.2	45.8
NKL (IL-2 2.5 ng/mL) [8]	4.18	17.6	36.9	46	43.3
SNK-6 (IL-2 2.5 ng/mL) [9]	5.61	27	39.2	45.4	42.4
YT (IL-2 2.5 ng/mL) [10]	0.19	-0.65	15.8	38.4	37
[1]	-0.77	-3.8	-2.52	2.05	0.46
[11]	-12.5	-14.8	-8.5	3.67	5.77
[12]	-9.7	-10.5	-6.43	11.5	21.5
[13]	-7.7	-1.98	0.82	5.73	4.97
[14]	-12.6	-4.69	-3.14	-1.42	-2.25

Settings	drug sensitivity score
DERL-7 (IL-2 2.5 ng/mL) [16]	12.3
IMC-1 (IL-2 20 ng/mL) [17]	0
KAI3 (IL-2 2.5 ng/mL) [18]	12.1
KHYG-1 (IL-2 2.5 ng/mL) [19]	5.27
NK-92 (IL-2 2.5 ng/mL) [20]	1.27
NK-YS (IL-2 2.5 ng/mL) [21]	13.5
NKL (IL-2 2.5 ng/mL) [22]	14.5
SNK-6 (IL-2 2.5 ng/mL) [23]	16.6
YT (IL-2 2.5 ng/mL) [24]	8.98
[15]	0
[25]	0
[26]	1.91
[27]	0
[28]	0
